# Source: patent publication US12377104B1, “Methods for treating a fatty liver disease” (Madrigal Pharmaceuticals, Inc., priority 2024, dated 2025)
# System: NASH patients
# Assay: MAESTRO-NASH: efficacy by baseline body weight and BMI
# Type: in vivo, human
# Conditions: for ≥30% Reduction in MRI-PDFF at Week 52, Assessment (%) / ≥120% Increase in SHBG at Week 52, Assessment (%): post hoc
# Protocol: In the MAESTRO-NASH study, randomization to 80 mg and 100 mg doses was equal across all body weights. Analyses were conducted to provide additional evidence of a relationship between resmetirom dose, baseline body weight and body mass index (BMI), and safety/efficacy readouts. […] The only variable that determined exposure to resmetirom in the NASH population was body weight. […] Study median body weight was 100 kg. […] et al. (2024). CAP was stable over time, both doses showing a similar durable response (FIG. 30B).
# [1] = Week 52 Paired Biopsies, 80 mg, >100 kg
# [2] = Week 52 Paired Biopsies, 80 mg, ≤100 kg
# [3] = Week 52 Paired Biopsies, 100 mg, >100 kg
# [4] = Week 52 Paired Biopsies, 100 mg, ≤100 kg
# [5] = Week 52 Primary Population, 80 mg, >100 kg
# [6] = Week 52 Primary Population, 80 mg, ≤100 kg
# [7] = Week 52 Primary Population, 100 mg, >100 kg
# [8] = Week 52 Primary Population, 100 mg, ≤100 kg
compound,measurement,setting,value
"CC(C)c1cc(Oc2c(Cl)cc(-n3nc(C#N)c(=O)[nH]c3=O)cc2Cl)n[nH]c1=O [Resmetirom, 2-(3,5-dichloro-4-((5-isopropyl-6-oxo-1,6-dihydropyridazin-3-yl)oxy)phenyl)-3,5-dioxo-2,3,4,5-tetrahydro-1,2,4-triazine-6-carbonitrile]",Week 52 Paired Biopsies Consensus NASH Resolution Responder: number,"100 mg, 80-<90 kg",16
same,Week 52 Paired Biopsies Consensus NASH Resolution Responder: percentage (in parentheses),"100 mg, 80-<90 kg",(39.0)
same,≥30% reduction in MRI-PDFF at Week 52: number of patients,"100 mg, 80-<90 kg",30
same,≥30% reduction in MRI-PDFF at Week 52: percentage of patients (in parentheses),"100 mg, 80-<90 kg",(76.9)
same,≥120% increase in SHBG at Week 52: number of patients,"100 mg, 80-<90 kg",27
same,≥120% increase in SHBG at Week 52: percentage of patients (in parentheses),"100 mg, 80-<90 kg",(62.8)
same,Discontinued Study Prior to Week 52: number,"100 mg, 90-<100 kg",15
same,Discontinued Study Prior to Week 52: percentage (in parentheses),"100 mg, 90-<100 kg",(25.4)
same,Week 52 MITT Consensus Fibrosis Improvement Responder: number,"100 mg, 90-<100 kg",12
same,Week 52 MITT Consensus Fibrosis Improvement Responder: percentage (in parentheses),"100 mg, 90-<100 kg",(20.3)
same,Week 52 MITT Consensus NASH Resolution Responder: number,"100 mg, 90-<100 kg",13
same,Week 52 MITT Consensus NASH Resolution Responder: percentage (in parentheses),"100 mg, 90-<100 kg",(22.0)
same,Week 52 Paired Biopsies Consensus Fibrosis Improvement Responder: number,"100 mg, 90-<100 kg",12
same,Week 52 Paired Biopsies Consensus Fibrosis Improvement Responder: percentage (in parentheses),"100 mg, 90-<100 kg",(29.3)
same,Week 52 Paired Biopsies Consensus NASH Resolution Responder: number,"100 mg, 90-<100 kg",13
same,Week 52 Paired Biopsies Consensus NASH Resolution Responder: percentage (in parentheses),"100 mg, 90-<100 kg",(31.7)
same,≥30% reduction in MRI-PDFF at Week 52: number of patients,"100 mg, 90-<100 kg",24
same,≥30% reduction in MRI-PDFF at Week 52: percentage of patients (in parentheses),"100 mg, 90-<100 kg",(70.6)
same,≥120% increase in SHBG at Week 52: number of patients,"100 mg, 90-<100 kg",28
same,≥120% increase in SHBG at Week 52: percentage of patients (in parentheses),"100 mg, 90-<100 kg",(63.6)
same,Discontinued Study Prior to Week 52: number,"100 mg, 100-<110 kg",9
same,Discontinued Study Prior to Week 52: percentage (in parentheses),"100 mg, 100-<110 kg",(17.6)
same,Week 52 MITT Consensus Fibrosis Improvement Responder: number,"100 mg, 100-<110 kg",14
same,Week 52 MITT Consensus Fibrosis Improvement Responder: percentage (in parentheses),"100 mg, 100-<110 kg",(27.5)
same,Week 52 MITT Consensus NASH Resolution Responder: number,"100 mg, 100-<110 kg",16
same,Week 52 MITT Consensus NASH Resolution Responder: percentage (in parentheses),"100 mg, 100-<110 kg",(31.4)
same,Week 52 Paired Biopsies Consensus Fibrosis Improvement Responder: number,"100 mg, 100-<110 kg",14
same,Week 52 Paired Biopsies Consensus Fibrosis Improvement Responder: percentage (in parentheses),"100 mg, 100-<110 kg",(35.0)
same,Week 52 Paired Biopsies Consensus NASH Resolution Responder: number,"100 mg, 100-<110 kg",16
same,Week 52 Paired Biopsies Consensus NASH Resolution Responder: percentage (in parentheses),"100 mg, 100-<110 kg",(40.0)
same,≥30% reduction in MRI-PDFF at Week 52: number of patients,"100 mg, 100-<110 kg",29
same,≥30% reduction in MRI-PDFF at Week 52: percentage of patients (in parentheses),"100 mg, 100-<110 kg",(70.7)
same,≥120% increase in SHBG at Week 52: number of patients,"100 mg, 100-<110 kg",27
same,≥120% increase in SHBG at Week 52: percentage of patients (in parentheses),"100 mg, 100-<110 kg",(62.8)
same,Discontinued Study Prior to Week 52: number,"100 mg, <80 kg",12
same,Discontinued Study Prior to Week 52: percentage (in parentheses),"100 mg, <80 kg",(21.4)
same,Week 52 MITT Consensus Fibrosis Improvement Responder: number,"100 mg, <80 kg",16
same,Week 52 MITT Consensus Fibrosis Improvement Responder: percentage (in parentheses),"100 mg, <80 kg",(28.6)
same,Week 52 MITT Consensus NASH Resolution Responder: number,"100 mg, <80 kg",14
same,Week 52 MITT Consensus NASH Resolution Responder: percentage (in parentheses),"100 mg, <80 kg",(25.0)
same,Week 52 Paired Biopsies Consensus Fibrosis Improvement Responder: number,"100 mg, <80 kg",16
same,Week 52 Paired Biopsies Consensus Fibrosis Improvement Responder: percentage (in parentheses),"100 mg, <80 kg",(40.0)
same,Week 52 Paired Biopsies Consensus NASH Resolution Responder: number,"100 mg, <80 kg",14
same,Week 52 Paired Biopsies Consensus NASH Resolution Responder: percentage (in parentheses),"100 mg, <80 kg",(35.0)
same,≥30% reduction in MRI-PDFF at Week 52: number of patients,"100 mg, <80 kg",24
same,≥30% reduction in MRI-PDFF at Week 52: percentage of patients (in parentheses),"100 mg, <80 kg",(64.9)
same,≥120% increase in SHBG at Week 52: number of patients,"100 mg, <80 kg",30
same,≥120% increase in SHBG at Week 52: percentage of patients (in parentheses),"100 mg, <80 kg",(68.2)
same,"≥30% Reduction in MRI-PDFF at Week 52, Assessment (%)","100 mg, body weight >100 kg",72.5%
same,"≥120% Increase in SHBG at Week 52, Assessment (%)","100 mg, body weight >100 kg",55.0%
same,"≥30% Reduction in MRI-PDFF at Week 52, Assessment (%)","100 mg, body weight ≤100 kg",71.7%
same,"≥120% Increase in SHBG at Week 52, Assessment (%)","100 mg, body weight ≤100 kg",64.2%
same,Discontinued Study Prior to Week 52: number,"100 mg, ≥110 kg",18
same,Discontinued Study Prior to Week 52: percentage (in parentheses),"100 mg, ≥110 kg",(16.7)
same,Week 52 MITT Consensus Fibrosis Improvement Responder: number,"100 mg, ≥110 kg",27
same,Week 52 MITT Consensus Fibrosis Improvement Responder: percentage (in parentheses),"100 mg, ≥110 kg",(25.0)
same,Week 52 MITT Consensus NASH Resolution Responder: number,"100 mg, ≥110 kg",30
same,Week 52 MITT Consensus NASH Resolution Responder: percentage (in parentheses),"100 mg, ≥110 kg",(27.8)
same,Week 52 Paired Biopsies Consensus Fibrosis Improvement Responder: number,"100 mg, ≥110 kg",27
same,Week 52 Paired Biopsies Consensus Fibrosis Improvement Responder: percentage (in parentheses),"100 mg, ≥110 kg",(31.4)
same,Week 52 Paired Biopsies Consensus NASH Resolution Responder: number,"100 mg, ≥110 kg",30
same,Week 52 Paired Biopsies Consensus NASH Resolution Responder: percentage (in parentheses),"100 mg, ≥110 kg",(34.9)
same,≥30% reduction in MRI-PDFF at Week 52: number of patients,"100 mg, ≥110 kg",53
same,≥30% reduction in MRI-PDFF at Week 52: percentage of patients (in parentheses),"100 mg, ≥110 kg",(74.6)
same,≥120% increase in SHBG at Week 52: number of patients,"100 mg, ≥110 kg",45
same,≥120% increase in SHBG at Week 52: percentage of patients (in parentheses),"100 mg, ≥110 kg",(50.6)
same,patients with worsening of VCTE,VCTE responder analyses at 1-3 years,less than 10%
same,"Consensus Fibrosis Improvement, Assessment (%)",[1],22.5%
same,"Consensus NASH Resolution, Assessment (%)",[1],27.0%
same,"Consensus Fibrosis Improvement, Assessment (%)",[2],35.4%
same,"Consensus NASH Resolution, Assessment (%)",[2],32.0%
same,"Consensus Fibrosis Improvement, Assessment (%)",[3],32.5%
same,"Consensus NASH Resolution, Assessment (%)",[3],35.8%
same,"Consensus Fibrosis Improvement, Assessment (%)",[4],33.6%
same,"Consensus NASH Resolution, Assessment (%)",[4],36.0%
same,"Consensus Fibrosis Improvement, Assessment (%)",[5],17.4%
same,"Consensus NASH Resolution, Assessment (%)",[5],20.8%
same,"Consensus Fibrosis Improvement, Assessment (%)",[6],29.2%
same,"Consensus NASH Resolution, Assessment (%)",[6],26.4%
same,"Consensus Fibrosis Improvement, Assessment (%)",[7],25.6%
same,"Consensus NASH Resolution, Assessment (%)",[7],28.2%
same,"Consensus Fibrosis Improvement, Assessment (%)",[8],25.1%
same,"Consensus NASH Resolution, Assessment (%)",[8],26.9%
